Measured values reported in US6911454B1, “Method for potentiating primary drugs in treating multidrug resistant disease” (priority 1989, dated 2005).
Like-named read-outs stand apart in the source and are kept apart here.

How the values were obtained:
A2780AD10 = conditions: FIG. 4; A2780AD10 versus parent A2780; addition of d-tetrandrine
[1] = test system: CQ-resistant (W-2) strain of P. falciparum; assay: 3H-adenosine incorporation, chloroquine-resistant P. falciparum; assay type: cell-based
Experimental: (§1) Chloroquine and qinghaosu are commonly used antimalarial drugs.
(§2) The dose (IC50) of each drug or each drug combination required to effect a 50% inhibition in the malarial activity of each strain was determined by establishing a dose response curve for each.
(§3) FCMSU1/Sudan strain and cloned Indochina (W-2) strain of P. falciparum were used. […] The two strains of the parasite were cultured according to the candle jar method of Trager and Jensen, Science, Vol. 193, pages 673-675 (1976). In a given experiment, four-day-old Petri dish cultures (approximately 10% parasitemia) were diluted with medium containing an amount of noninfected type A human erythrocytes to obtain a culture with a final hematocrit of 1.5% and parasitemia of 0.5-1.0%. The resulting culture was ready for addition to microtitration plates with ninety-six flat-bottom wells.
(§4) The testing procedure used was similar to that described by Desjardins et al. in “Antimicrobial Agents and Chemotherapy,” Vol. 16, pages 710-718 (1979). […] 25 microliters radioactive (0.5 microCi) [2,8-^3H] adenosine. The microtitration plates were incubated in a candle jar for an additional 18 hours, at 37° C.
(§5) As the malaria parasite grows ^3H-adenosine is metabolized and incorporates into polymeric RNA and DNA. The labeled polymers are trapped on glass fiber filters and unincorporated material is washed away. In the absence of drug there is 100% incorporation of the labeled material. When drugs interfere (directly or indirectly), an inhibitory dose of 50% (IC50) can be calculated. The experiments were repeated three times except where noted. Statistical analysis was done using Student's T-test for significance. Van Kyke et al. “Exp. Parasitol,” Vol. 64, pages 418-423 (1987).
(§6) The test procedure was basically the same as outlined above.

[2] = test system: CQ-sensitive (FCMSU1/Sudan) strain of P. falciparum; assay: 3H-adenosine incorporation, chloroquine-sensitive P. falciparum; assay type: cell-based
Experimental: as §1, §2, §3, §4, §5, §6

DX20 tumor = assay: tumor measurements in nude mice bearing the DX20 tumor; assay type: in vivo
Experimental: (See FIG. 6). Tumor size was calculated using the formula (4 Pi/3) X*Y*2Z.
The study was done with 3-4 week old male balb-C nude mice. The animals were injected with DX20 1×10^7 cells.

[3] = Day 7 Prior to Treatment (baseline)
[4] = Day 24 After Treatment, d-tetrandrine days 6, 8, 10, doxorubicin 5.5 mg/kg day 12

Question: How did the doxorubicin resistance reversal (A2780AD10) turn out when `COc1ccc2cc1Oc1ccc(cc1)C[C@H]1c3cc(c(OC)cc3CCN1C)Oc1c(OC)c(OC)cc3c1[C@H](C2)N(C)CC3` [TT, tetrandrine] was run?
Answer: Its doxorubicin resistance reversal is “either partially or completely reversed”.

Question: What about the IC50 ([1]; R STRAIN, TT/CQ 10:1, mean ± S.D, read-out: IC50 DRUG COMBINATION TT(2.0 uM) CQ(0.2 uM)) of the same compound?
Answer: The IC50 was 0.0795 ± 0.0161 µM.

Question: What about the IC50 ([1]; R STRAIN, TT/QHS 10:1, mean ± S.D, read-out: IC50 DRUG COMBINATION TT(2.0 uM) QHS(0.2 uM)) of the same compound?
Answer: Its IC50 is 0.0718 ± 0.0138 µM.

Question: And the IC50 ([1]; Table III, R STRAIN, mean ± S.D, read-out: IC50 SINGLE DRUG)?
Answer: Its IC50 is 0.198 ± 0.0247 µM.

Question: What about the IC50 ([1]; Table IV, R STRAIN, mean ± S.D, read-out: IC50 SINGLE DRUG) of the same compound?
Answer: The IC50 was 0.206 ± 0.0498 µM.

Question: What about the IC50 ([1]; Table VII, chloroquine-resistant strain, drug alone, read-out: IC50 R) of the same compound?
Answer: Its IC50 is 0.12 µM.

Question: And the IC50 ([1]; read-out: IC50 DRUG COMBINATION TT(1.0 uM) CQ(0.3 uM), R STRAIN, TT/CQ 10:3, mean ± S.D)?
Answer: The IC50 was 0.0795 ± 0.0137 µM.

Question: And the IC50 ([1]; read-out: IC50 DRUG COMBINATION TT(1.0 uM) QHS(0.3 uM), R STRAIN, TT/QHS 10:3, mean ± S.D)?
Answer: Its IC50 is 0.0596 ± 0.0137 µM.

Question: And the IC50 ([1]; read-out: IC50 DRUG COMBINATION TT(3.0 uM) CQ(0.1 uM), R STRAIN, TT/CQ 30:1, mean ± S.D)?
Answer: The IC50 was 0.125 ± 0.0096 µM.

Question: What about the IC50 ([1]; read-out: IC50 DRUG COMBINATION TT(3.0 uM) QHS(0.1 uM), R STRAIN, TT/QHS 30:1, mean ± S.D) of the same compound?
Answer: Its IC50 is 0.137 ± 0.0416 µM.

Question: And the IC50 ([2]; S STRAIN, TT/CQ 10:1, mean ± S.D, read-out: IC50 DRUG COMBINATION TT(2.0 uM) CQ(0.2 uM))?
Answer: Its IC50 is 0.114 ± 0.023 µM.

Question: And the IC50 ([2]; S STRAIN, TT/QHS 10:1, mean ± S.D, read-out: IC50 DRUG COMBINATION TT(2.0 uM) QHS(0.2 uM))?
Answer: Its IC50 is 0.114 ± 0.0063 µM.

Question: What about the IC50 ([2]; Table III, S STRAIN, mean ± S.D, read-out: IC50 SINGLE DRUG) of the same compound?
Answer: Its IC50 is 0.498 ± 0.0937 µM.

Question: And the IC50 ([2]; Table IV, S STRAIN, mean ± S.D, read-out: IC50 SINGLE DRUG)?
Answer: The IC50 was 0.41 ± 0.069 µM.

Question: And the IC50 ([2]; Table VII, chloroquine-sensitive strain, drug alone, read-out: IC50 S)?
Answer: Its IC50 is 0.29 µM.

Question: What about the IC50 ([2]; read-out: IC50 DRUG COMBINATION TT(1.0 uM) CQ(0.3 uM), S STRAIN, TT/CQ 10:3, mean ± S.D) of the same compound?
Answer: Its IC50 is 0.0549 ± 0.0071 µM.

Question: What about the IC50 ([2]; read-out: IC50 DRUG COMBINATION TT(1.0 uM) QHS(0.3 uM), S STRAIN, TT/QHS 10:3, mean ± S.D) of the same compound?
Answer: The IC50 was 0.0719 ± 0.0089 µM.

Question: And the IC50 ([2]; read-out: IC50 DRUG COMBINATION TT(3.0 uM) CQ(0.1 uM), S STRAIN, TT/CQ 30:1, mean ± S.D)?
Answer: Its IC50 is 0.223 ± 0.0386 µM.

Question: And the IC50 ([2]; read-out: IC50 DRUG COMBINATION TT(3.0 uM) QHS(0.1 uM), S STRAIN, TT/QHS 30:1, mean ± S.D)?
Answer: Its IC50 is 0.22 ± 0.0355 µM.

Question: What about the “Tumor Measurements Depth” value (DX20 tumor; [3]) of the same compound?
Answer: Its value is 1.13.

Question: And the “Tumor Measurements Length” value (DX20 tumor; [3])?
Answer: The value was 4.13.

Question: And the “Tumor Measurements Width” value (DX20 tumor; [3])?
Answer: The value was 3.75.

Question: And the “Tumor Measurements Depth” value (DX20 tumor; [4])?
Answer: The value was 24.66.

Question: What about the “Tumor Measurements Width” value (DX20 tumor; [4]) of the same compound?
Answer: The value was 26.16.
